Assay results: ChEMBL document CHEMBL4396898, “Design and synthesis of 3-aminophthalazine derivatives and structural analogues as PDE5 inhibitors: anti-allodynic effect against neuropathic pain in a mouse model” (Eur J Med Chem, 2019)
≈ marks a conversion by molar mass, not a printed value.

What was measured:
[1] = physchem; settings: saline
[2] = physchem; settings: methanol:water:HCl, pH 1

SMILES: Clc1cccc(Nc2nnc(-c3ccccc3)c3ccccc23)c1
- solubility at 24 h [1]: 63 µg/mL (≈ 190 µM)

SMILES: COc1ccc(CNc2nn(C)c3ccc(C(F)(F)F)cc23)cc1
- remaining at 96 h [2]: 100%

SMILES: COc1ccc(CNc2nn(-c3cccnc3)c3ccc(C(F)(F)F)cc23)cc1
- solubility at 24 h [1]: 15 µg/mL (≈ 37.7 µM)
- remaining at 96 h [2]: 100%
